Reference: patent publication US6281342A, “Pradimicin compounds” (Bristol-Myers Squibb Company, priority 1994, dated 2001)
Converted amounts (≈) assume the structure as drawn. Like-named read-outs stand apart in the source and are kept apart here.

Key:
[1] = system: Saccharomyces cerevisiae ATCC 9763; test: MIC, two-fold agar dilution, S. cerevisiae ATCC 9763; assay type: cell-based; settings: ATCC9763, YMA pH 7.0, 28° C., 40 hours
Protocol: (§1) Minimum inhibitory concentrations (MICs) of nine 4'-N-substituted pradimicin derivatives were determined by two-fold agar dilution method on phosphate-buffered yeast morphology agar (YMA, pH 7.0, Difco Laboratories). A 5-μl of fungal cell suspension containing 2×10^6 cells/ml (2×10^7 cells/ml for Trichophyton mentagrophytes) were spotted on the surface of the agar plates containing test compound. MICs were recorded after 40-hour incubation at 28° C. except for T. mentagrophytes, which required 60-hour incubation to produce visually evaluable growth on the drug-free control plates and were defined as the lowest antibiotic concentrations showing no growth or less than five discrete colonies per spot.
(§2) Medium: yeast morphology agar + 1/15 M phosphate buffer (pH 7.0)
(§3) Incubation conditions: 28° C., 40 hours (C. albicans ATCC 38247 & T.
(§4) Medium: Yeast morphology agar + 1/15 phosphate buffer (pH 7.0).

[2] = system: Candida albicans IAM 4888; test: MIC, two-fold agar dilution, C. albicans IAM 4888; assay type: cell-based; settings: IAM4888, YMA pH 7.0, 28° C., 40 hours
Protocol: as §1, §2, §3, §4

Candida albicans A9540 [3] = test: MIC, two-fold agar dilution, C. albicans A9540; assay type: cell-based
Protocol: as §1, §2, §3, §4

[4] = system: Candida albicans ATCC 38247; test: MIC, two-fold agar dilution, C. albicans ATCC 38247; assay type: cell-based; settings: ATCC38247, YMA pH 7.0, 28° C., 60 hours (table footnote)
Protocol: as §1, §2, §3
(§5) mentagrophytes #4329: 28° C., 60 hours).
as §4

[5] = system: Candida albicans ATCC 32354; test: MIC, two-fold agar dilution, C. albicans ATCC 32354; assay type: cell-based; settings: ATCC32354, YMA pH 7.0, 28° C., 40 hours
Protocol: as §1, §2, §3, §4

Candida albicans 83-2-14 = test: MIC, two-fold agar dilution, C. albicans 83-2-14; assay type: cell-based; settings: 83214, YMA pH 7.0, 28° C., 40 hours
Protocol: as §1, §2, §3, §4

Candida tropicalis 85-8 = test: MIC, two-fold agar dilution, C. tropicalis 85-8; assay type: cell-based; settings: 858, YMA pH 7.0, 28° C., 40 hours
Protocol: as §1, §2, §3, §4

[6] = system: Candida tropicalis IFO 10241; test: MIC, two-fold agar dilution, C. tropicalis IFO 10241; assay type: cell-based; settings: IFO10241, YMA pH 7.0, 28° C., 40 hours
Protocol: as §1, §2, §3, §4

[7] = system: Cryptococcus neoformans D49; test: MIC, two-fold agar dilution, C. neoformans D49; assay type: cell-based; settings: YMA pH 7.0, 28° C., 40 hours
Protocol: as §1, §2, §3, §4

[8] = system: Cryptococcus neoformans IAM 4514; test: MIC, two-fold agar dilution, C. neoformans IAM 4514; assay type: cell-based; settings: IAM4514
Protocol: as §1, §2, §3, §4

[9] = system: Aspergillus fumigatus IAM 2034; test: MIC, two-fold agar dilution, A. fumigatus IAM 2034; assay type: cell-based; settings: IAM2034
Protocol: as §1, §2, §3, §4

[10] = system: Trichophyton mentagrophytes #4329; test: MIC, two-fold agar dilution, T. mentagrophytes #4329; assay type: cell-based
Protocol: as §1, §2, §3, §5, §4

Candida albicans A9540 [11] = test: animal or person; assay type: in vivo, male ICR mice infected with Candida albicans A9540; settings: Candida albicans; for ED50: Table 2, 95% confidence limits in parentheses, read-out: PD50 (50% protection dose)
Protocol: (§6) The in vivo therapeutic efficacies of seven 4'-N-substituted pradimicin derivatives, KHM-1, KHM-2, KHM-3, KHM-4, KHM-5, KHM-6 and KHM-7 were evaluated in the mouse infected with Candida albicans A9540 and Aspergillus fumigatusIAM 2034. Groups of five specific-pathogen-free male ICR mice weighing 20-25 g at each dose level were intravenously infected with approximately 10 times the 50% lethal dose of C. albicans A9540 (1×10^6 cells/mouse) or A. fumigatus IAM 2034 (1×10^7 cells/mouse). Immediately after the fungal infection, test compounds dissolved with 10% DMSO in distilled water were intravenously given to the mouse at the dosed volume of 0.1 ml/10 g of body weight. […] Untreated control animals died 7 to 13 days post-infection.

[12] = system: Aspergillus fumigatus IAM 2034; test: Therapeutic efficacy in Aspergillus fumigatus systemic infection in mice; assay type: in vivo, male ICR mice infected with Aspergillus fumigatus IAM 2034; settings: IAM2034, 480 h; for responders at 6.3 mg/kg: 6.3 mg/kg iv; for responders at 6.3 mg/kg / responders at 12.5 mg/kg / responders at 25 mg/kg / responders at 50 mg/kg: 20th day post-infection, read-out: S/T (No. of survivors/tested) (converted); for responders at 12.5 mg/kg: 12.5 mg/kg iv; for responders at 25 mg/kg: 25 mg/kg iv; for responders at 50 mg/kg: 50 mg/kg iv
Protocol: as §6

[13] = Water solubility at neutral pH in PBS containing Ca^2+/Mg^2+; assay type: physicochemical; settings: pbs with ca2+/mg2+; Table 3; water-solubility at neutral pH in phosphate buffered saline containing Ca^2+/Mg^2+
Protocol: The compounds of the invention have good water solubility. Typically, the water solubility is greater than 10 mg/ml when measured at neutral pH in PBS containing Ca^2+ /Mg^2+, preferably greater than 20 mg/ml.
^2) Water-solubility at neutral pH in phosphate buffered saline
containing Ca^2+ /Mg^2+.

[14] = Candida albicans A9540, YMA pH 7.0, 28° C., 40 hours, read-out: MIC
[15] = Table 3, Candida albicans A9540, YMA, read-out: MIC Ca-4
[16] = Cryptococcus neoformans IAM 4514, YMA pH 7.0, 28° C., 40 hours, read-out: MIC
[17] = Table 3, Cryptococcus neoformans IAM 4514, YMA, read-out: MIC Cn-2
[18] = Aspergillus fumigatus IAM 2034, YMA pH 7.0, 28° C., 40 hours, read-out: MIC
[19] = Table 3, Aspergillus fumigatus IAM 2034, YMA, read-out: MIC Af-3
[20] = Table 3, Trichophyton mentagrophytes #4329, YMA, read-out: MIC TM-4
[21] = Trichophyton mentagrophytes #4329, YMA pH 7.0, 28° C., 60 hours, read-out: MIC
[22] = A9540, 480 h, C. albicans, mice, iv
[23] = A9540, in Mus musculus, iv, 480 h, read-out: S/T (No. of survivors/tested)
[24] = Aspergillus fumigatus, A. fumigatus, mice
[25] = Aspergillus fumigatus, Table 2, A. fumigatus, mice, iv, 95% confidence limits in parentheses, read-out: PD50 (50% protection dose)

| SMILES | MIC [1] | MIC [2] | MIC (Candida albicans A9540 [3]; [14]) | MIC (Candida albicans A9540 [3]; [15]) | MIC [4] | MIC [5] | MIC (Candida albicans 83-2-14) | MIC (Candida tropicalis 85-8) | MIC [6] | MIC [7] | MIC [8, 16] | MIC [8, 17] | MIC [9, 18] | MIC [9, 19] | MIC [10, 20] | MIC [10, 21] | ED50 (Candida albicans A9540 [11]; [22]) | responders at 6.3 mg/kg [12, 24] | responders at 12.5 mg/kg [12, 24] | responders at 25 mg/kg [12, 24] | also measured |
| --- | --- | --- | --- | --- | --- | --- | --- | --- | --- | --- | --- | --- | --- | --- | --- | --- | --- | --- | --- | --- | --- |
| COc1cc(O)c2c(c1)C(=O)c1c(cc3c(c1O)-c1c(cc(C)c(C(=O)N[C@H](C)C(=O)O)c1O)[C@H](O[C@@H]1O[C@H](C)[C@H](NC(=N)N[N+](=O)[O-])[C@H](O[C@@H]4OC[C@@H](O)[C@H](O)[C@H]4O)[C@H]1O)[C@H]3O)C2=O [KHM-7, 4'-Nitroquanidinopradimicin C] | 3.1 mg/L (≈ 3.39 µM) | 3.1 mg/L (≈ 3.39 µM) | 3.1 mg/L (≈ 3.39 µM) | 3.1 mg/L (≈ 3.39 µM) | 1.6 mg/L (≈ 1.75 µM) | 3.1 mg/L (≈ 3.39 µM) | 6.3 mg/L (≈ 6.89 µM) | 12.5 mg/L (≈ 13.7 µM) | 12.5 mg/L (≈ 13.7 µM) | 3.1 mg/L (≈ 3.39 µM) | 1.6 mg/L (≈ 1.75 µM) | 1.6 mg/L (≈ 1.75 µM) | 3.1 mg/L (≈ 3.39 µM) | 3.1 mg/L (≈ 3.39 µM) | 3.1 mg/L (≈ 3.39 µM) | 3.1 mg/L (≈ 3.39 µM) | 12 mg/kg | 20% | 40% | 0% | responders at 6.3 mg/kg (Candida albicans A9540 [11]; [23]): 40%; responders at 12.5 mg/kg (Candida albicans A9540 [11]; [23]): 60%; responders at 25 mg/kg (Candida albicans A9540 [11]; [23]): 60%; responders at 50 mg/kg (Candida albicans A9540 [11]; [23]): 80%; responders at 50 mg/kg [12, 24]: 20%; ED50 [12, 25]: > 50 mg/kg; ED50 ([12]; Table 3, Aspergillus fumigatus IAM 2034, iv, read-out: PD50 (mice) Af-3): > 50 mg/kg; solubility [13]: > 20 mg/mL |
| CN[C@@H]1[C@H](O[C@@H]2OC[C@@H](O)[C@H](O)[C@H]2O)[C@@H](O)[C@H](O[C@H]2c3cc(C)c(C(=O)N[C@H](C)C(=O)O)c(O)c3-c3c(cc4c(c3O)C(=O)c3cc(OC)cc(O)c3C4=O)[C@@H]2O)O[C@@H]1C [Pradimicin A, reference compound] | 6.3 mg/L (≈ 7.49 µM) | 6.3 mg/L (≈ 7.49 µM) | 12.5 mg/L (≈ 14.9 µM) | 12.5 mg/L (≈ 14.9 µM) | 3.1 mg/L (≈ 3.69 µM) | 3.1 mg/L (≈ 3.69 µM) | > 100 mg/L | > 100 mg/L | > 100 mg/L | 1.6 mg/L (≈ 1.9 µM) | 1.6 mg/L (≈ 1.9 µM) | 1.6 mg/L (≈ 1.9 µM) | 1.6 mg/L (≈ 1.9 µM) | 0.8 mg/L (≈ 0.951 µM) | 3.1 mg/L (≈ 3.69 µM) | 3.1 mg/L (≈ 3.69 µM) | 10 mg/kg | 0% | 20% | 60% | responders at 6.3 mg/kg (Candida albicans A9540 [11]; A9540, 480 h, C. albicans, mice, 6.3 mg/kg iv, 20th day post-infection, read-out: S/T (No. of survivors/tested) (converted)): 0%; responders at 12.5 mg/kg (Candida albicans A9540 [11]; A9540, 480 h, C. albicans, mice, 12.5 mg/kg iv, 20th day post-infection, read-out: S/T (No. of survivors/tested) (converted)): 80%; responders at 25 mg/kg (Candida albicans A9540 [11]; A9540, 480 h, C. albicans, mice, 25 mg/kg iv, 20th day post-infection, read-out: S/T (No. of survivors/tested) (converted)): 100%; responders at 50 mg/kg (Candida albicans A9540 [11]; A9540, 480 h, C. albicans, mice, 50 mg/kg iv, 20th day post-infection, read-out: S/T (No. of survivors/tested) (converted)): 100%; responders at 50 mg/kg [12, 24]: 100%; ED50 [12, 25]: 23 mg/kg; solubility [13]: 0.02 mg/mL (≈ 23.8 µM) |
